Results: US10710978B2, “STK4 inhibitors for treatment of hematologic malignancies” (Dana-Farber Cancer Institute, Inc., priority 2015, dated 2020)
Like-named read-outs stand apart in the source and are kept apart here.

Columns and labels:
Experiment in all cases: KiNativ assay
Assay type in all cases: binding
[1] = molecular target: PAK2 (Homo sapiens (Human), UniProt Q13177); conditions: H929 live cell
In short: (§1)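 Live H929 cells, compound 10 μM, duplicate; KiNativ probe profiling; IC50 by MS.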

[2] = molecular target: GPRK6 (Homo sapiens (Human), UniProt P43250); conditions: H929 live cell
Sequence of GPRK6 (P43250 whole entry): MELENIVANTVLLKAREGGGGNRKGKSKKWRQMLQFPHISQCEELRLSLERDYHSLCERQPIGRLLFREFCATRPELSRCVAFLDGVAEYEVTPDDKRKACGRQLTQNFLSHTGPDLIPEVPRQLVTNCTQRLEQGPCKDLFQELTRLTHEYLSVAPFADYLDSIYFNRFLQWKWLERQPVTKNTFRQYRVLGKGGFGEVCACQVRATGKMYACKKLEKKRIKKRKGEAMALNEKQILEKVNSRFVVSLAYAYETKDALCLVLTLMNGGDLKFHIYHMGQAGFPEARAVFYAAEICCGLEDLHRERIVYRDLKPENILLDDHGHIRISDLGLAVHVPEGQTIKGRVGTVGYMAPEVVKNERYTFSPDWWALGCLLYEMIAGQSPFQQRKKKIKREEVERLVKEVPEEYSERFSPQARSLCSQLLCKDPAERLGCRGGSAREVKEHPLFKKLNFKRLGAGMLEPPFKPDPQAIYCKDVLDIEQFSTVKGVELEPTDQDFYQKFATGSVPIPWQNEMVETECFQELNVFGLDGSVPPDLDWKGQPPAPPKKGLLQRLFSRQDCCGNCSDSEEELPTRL
In short: (§2)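 KiNativ profiling in live H929 cells; single concentration 10 μM, n=2; IC50 from MS measurement.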

[3] = system: PCTAIRE2, PCTAIRE3; conditions: H929 live cell; for % inhibition: 10 μM, range class
In short: as §1

[4] = system: MER, TYRO3; conditions: H929 live cell; for % inhibition: 10 μM, range class
In short: as §2

[5] = molecular target: TAK1 (Homo sapiens (Human), UniProt O43318); conditions: H929 live cell
In short: as §2

[6] = molecular target: ATM (Homo sapiens (Human), UniProt Q13315); conditions: H929 live cell
In short: as §1

[7] = molecular target: ULK3 (Homo sapiens (Human), UniProt Q6PHR2); conditions: H929 live cell
Sequence of ULK3 (Q6PHR2 whole entry): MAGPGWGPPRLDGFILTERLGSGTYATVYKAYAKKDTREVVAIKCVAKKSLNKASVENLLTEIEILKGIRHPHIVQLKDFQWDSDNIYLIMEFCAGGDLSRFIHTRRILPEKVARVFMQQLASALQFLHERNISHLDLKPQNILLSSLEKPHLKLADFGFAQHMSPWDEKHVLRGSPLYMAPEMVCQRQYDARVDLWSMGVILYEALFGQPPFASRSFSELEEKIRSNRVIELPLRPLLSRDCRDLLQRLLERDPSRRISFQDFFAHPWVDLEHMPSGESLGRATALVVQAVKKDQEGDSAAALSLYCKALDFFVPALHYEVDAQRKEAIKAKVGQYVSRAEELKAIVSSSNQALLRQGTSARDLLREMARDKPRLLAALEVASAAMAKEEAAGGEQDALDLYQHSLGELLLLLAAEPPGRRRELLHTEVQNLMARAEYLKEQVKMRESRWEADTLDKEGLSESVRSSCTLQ
In short: as §2

[8] = system: ALK2, ALK4, ALK7, BMPR1B, TGFbR1; conditions: H929 live cell; for % inhibition: 10 μM, range class
In short: as §1

[9] = system: MAST1, MAST2; conditions: H929 live cell; for % inhibition: 10 μM, range class
In short: as §2

[10] = molecular target: PIP4K2B (Homo sapiens (Human), UniProt P78356); conditions: H929 live cell
In short: as §1

[11] = system: PCTAIRE1, PCTAIRE3; conditions: H929 live cell; for % inhibition: 10 μM, range class
In short: as §1

[12] = molecular target: MAP3K15 (Homo sapiens (Human), UniProt Q6ZN16); conditions: H929 live cell
Sequence of MAP3K15 (Q6ZN16 whole entry): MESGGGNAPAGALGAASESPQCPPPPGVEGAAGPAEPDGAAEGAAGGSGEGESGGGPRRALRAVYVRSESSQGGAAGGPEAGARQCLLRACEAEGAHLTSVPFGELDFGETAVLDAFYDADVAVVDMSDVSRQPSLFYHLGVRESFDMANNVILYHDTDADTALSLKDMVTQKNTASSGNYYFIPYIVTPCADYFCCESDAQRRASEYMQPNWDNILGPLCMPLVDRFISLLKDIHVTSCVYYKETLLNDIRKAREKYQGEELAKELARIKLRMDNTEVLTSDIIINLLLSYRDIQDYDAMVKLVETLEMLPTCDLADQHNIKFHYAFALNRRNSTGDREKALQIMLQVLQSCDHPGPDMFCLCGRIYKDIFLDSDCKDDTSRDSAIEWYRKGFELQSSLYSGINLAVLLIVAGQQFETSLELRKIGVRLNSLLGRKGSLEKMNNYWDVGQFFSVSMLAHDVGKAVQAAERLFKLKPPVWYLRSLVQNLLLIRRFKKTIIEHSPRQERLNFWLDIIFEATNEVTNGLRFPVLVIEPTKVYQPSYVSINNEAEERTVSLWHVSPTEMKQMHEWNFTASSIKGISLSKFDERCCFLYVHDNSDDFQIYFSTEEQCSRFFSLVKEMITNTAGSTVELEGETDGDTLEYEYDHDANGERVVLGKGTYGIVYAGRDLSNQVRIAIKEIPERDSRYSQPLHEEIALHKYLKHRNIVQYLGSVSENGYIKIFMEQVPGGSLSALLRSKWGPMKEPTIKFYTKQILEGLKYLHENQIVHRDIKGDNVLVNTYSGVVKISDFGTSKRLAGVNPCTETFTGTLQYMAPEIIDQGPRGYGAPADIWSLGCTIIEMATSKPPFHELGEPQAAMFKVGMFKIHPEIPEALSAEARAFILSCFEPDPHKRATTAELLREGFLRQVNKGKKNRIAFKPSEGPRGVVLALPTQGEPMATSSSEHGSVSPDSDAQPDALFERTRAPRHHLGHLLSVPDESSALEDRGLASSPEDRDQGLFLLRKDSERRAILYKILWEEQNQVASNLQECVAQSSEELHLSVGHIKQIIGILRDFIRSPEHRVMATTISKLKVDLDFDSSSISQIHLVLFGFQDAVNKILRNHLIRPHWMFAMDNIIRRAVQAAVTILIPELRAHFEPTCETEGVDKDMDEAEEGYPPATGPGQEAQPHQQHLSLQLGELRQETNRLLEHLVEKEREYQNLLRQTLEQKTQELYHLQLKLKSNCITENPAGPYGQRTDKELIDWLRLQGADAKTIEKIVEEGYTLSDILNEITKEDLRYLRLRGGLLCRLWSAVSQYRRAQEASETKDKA
In short: as §1

[13] = molecular target: GAK (Homo sapiens (Human), UniProt O14976); conditions: H929 live cell
In short: as §2

[14] = molecular target: PYK2 (Homo sapiens (Human), UniProt Q14289); conditions: H929 live cell
Sequence of PYK2 (Q14289 whole entry): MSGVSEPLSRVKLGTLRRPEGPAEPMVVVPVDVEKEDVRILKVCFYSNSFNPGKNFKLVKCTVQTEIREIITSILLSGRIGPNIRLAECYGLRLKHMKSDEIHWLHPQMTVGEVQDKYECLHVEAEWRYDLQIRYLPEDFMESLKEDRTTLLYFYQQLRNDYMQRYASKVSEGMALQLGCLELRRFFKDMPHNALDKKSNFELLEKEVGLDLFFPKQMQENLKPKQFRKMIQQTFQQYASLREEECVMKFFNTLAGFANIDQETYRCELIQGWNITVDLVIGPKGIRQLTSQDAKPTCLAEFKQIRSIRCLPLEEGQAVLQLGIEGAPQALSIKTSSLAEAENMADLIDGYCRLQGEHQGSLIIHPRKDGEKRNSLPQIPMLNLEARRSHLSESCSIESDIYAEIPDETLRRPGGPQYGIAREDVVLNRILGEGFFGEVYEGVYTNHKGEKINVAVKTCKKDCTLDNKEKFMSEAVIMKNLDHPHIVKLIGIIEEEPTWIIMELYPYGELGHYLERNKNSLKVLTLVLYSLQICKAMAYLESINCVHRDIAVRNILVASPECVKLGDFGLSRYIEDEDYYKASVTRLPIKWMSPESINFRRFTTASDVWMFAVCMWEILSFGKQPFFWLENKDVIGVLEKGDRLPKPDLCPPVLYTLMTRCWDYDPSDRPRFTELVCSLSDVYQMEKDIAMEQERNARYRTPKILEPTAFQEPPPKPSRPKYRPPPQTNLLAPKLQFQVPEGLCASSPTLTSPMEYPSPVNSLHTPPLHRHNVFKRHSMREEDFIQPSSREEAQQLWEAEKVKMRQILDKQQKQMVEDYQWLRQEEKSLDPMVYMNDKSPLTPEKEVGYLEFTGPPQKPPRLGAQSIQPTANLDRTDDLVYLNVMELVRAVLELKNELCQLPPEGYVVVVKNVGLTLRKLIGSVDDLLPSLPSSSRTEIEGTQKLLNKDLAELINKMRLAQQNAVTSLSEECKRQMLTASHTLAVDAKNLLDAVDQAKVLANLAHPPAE
In short: as §1

[15] = molecular target: MAP3K6 (Homo sapiens (Human), UniProt O95382); conditions: H929 live cell
In short: as §2

[16] = molecular target: MAP3K3 (Homo sapiens (Human), UniProt Q99759); conditions: H929 live cell
Sequence of MAP3K3 (Q99759 whole entry): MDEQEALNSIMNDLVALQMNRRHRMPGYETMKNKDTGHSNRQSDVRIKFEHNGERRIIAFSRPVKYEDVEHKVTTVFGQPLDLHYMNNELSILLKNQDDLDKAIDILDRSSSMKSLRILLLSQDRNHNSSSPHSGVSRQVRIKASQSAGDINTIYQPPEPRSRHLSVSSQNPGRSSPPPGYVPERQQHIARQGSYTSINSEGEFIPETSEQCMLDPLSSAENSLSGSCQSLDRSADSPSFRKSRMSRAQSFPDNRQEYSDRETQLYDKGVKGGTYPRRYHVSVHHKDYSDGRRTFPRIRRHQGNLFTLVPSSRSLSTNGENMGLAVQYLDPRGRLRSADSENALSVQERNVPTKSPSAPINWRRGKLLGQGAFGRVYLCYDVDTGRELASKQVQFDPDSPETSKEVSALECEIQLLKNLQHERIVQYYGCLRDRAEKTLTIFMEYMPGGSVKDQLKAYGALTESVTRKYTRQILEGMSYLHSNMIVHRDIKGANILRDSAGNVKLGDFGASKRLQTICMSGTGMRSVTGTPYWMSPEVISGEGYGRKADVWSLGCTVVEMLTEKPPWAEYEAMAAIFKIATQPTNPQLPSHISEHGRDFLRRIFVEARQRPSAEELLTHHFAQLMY
In short: as §1

[17] = molecular target: LZK (Homo sapiens (Human), UniProt O43283); conditions: H929 live cell
In short: as §1

[18] = molecular target: AGK (Homo sapiens (Human), UniProt Q53H12); conditions: H929 live cell
Sequence of AGK (Q53H12 whole entry): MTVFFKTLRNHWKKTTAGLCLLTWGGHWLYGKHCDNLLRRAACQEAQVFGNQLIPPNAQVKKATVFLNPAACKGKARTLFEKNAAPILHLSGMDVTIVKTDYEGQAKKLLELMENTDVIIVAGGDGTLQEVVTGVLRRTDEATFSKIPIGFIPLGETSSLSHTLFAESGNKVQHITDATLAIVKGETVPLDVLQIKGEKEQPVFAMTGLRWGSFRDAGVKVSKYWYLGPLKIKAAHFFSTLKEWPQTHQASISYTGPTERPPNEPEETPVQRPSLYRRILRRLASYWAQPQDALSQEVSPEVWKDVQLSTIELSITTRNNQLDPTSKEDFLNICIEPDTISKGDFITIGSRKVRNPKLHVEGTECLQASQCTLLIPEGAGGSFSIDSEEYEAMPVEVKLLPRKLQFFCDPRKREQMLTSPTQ
In short: as §1

[19] = range class, read-out: % inhibition

Sequence of PAK2 (Q13177 whole entry): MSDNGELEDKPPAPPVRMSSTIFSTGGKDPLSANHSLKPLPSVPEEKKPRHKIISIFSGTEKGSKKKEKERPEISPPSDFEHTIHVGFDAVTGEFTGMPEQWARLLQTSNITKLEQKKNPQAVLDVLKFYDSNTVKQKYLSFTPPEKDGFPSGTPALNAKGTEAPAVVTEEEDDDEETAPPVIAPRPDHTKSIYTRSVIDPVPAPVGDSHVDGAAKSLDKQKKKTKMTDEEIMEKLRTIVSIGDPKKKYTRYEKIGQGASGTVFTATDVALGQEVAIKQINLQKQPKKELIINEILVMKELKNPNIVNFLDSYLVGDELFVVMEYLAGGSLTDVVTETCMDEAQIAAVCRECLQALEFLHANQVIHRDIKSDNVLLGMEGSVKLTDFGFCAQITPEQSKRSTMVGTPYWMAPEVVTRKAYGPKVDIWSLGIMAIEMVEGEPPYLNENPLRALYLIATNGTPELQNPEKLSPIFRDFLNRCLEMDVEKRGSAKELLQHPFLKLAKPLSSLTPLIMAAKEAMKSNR

In the case of `COc1cc(NS(=O)(=O)C2CC2)ccc1-c1cnc(N)c(-c2ccc3c(c2)CCNC3=O)c1` [Compound I-50, N-(4-(6-amino-5-(1-oxo-1,2,3,4-tetrahydroisoquinolin-6-yl)pyridin-3-yl)-3-methoxyphenyl) cyclopropanesulfonamide], the inhibition at 10 µM [1, 19] is reported as 0%, the inhibition at 10 µM ([1]; read-out: inhibition (10 μM)) is reported as 20.2% and the inhibition at 10 µM [2, 19] is reported as 0%. The inhibition at 10 µM ([2]; read-out: inhibition (10 μM)) was -40.5%, the “% inhibition” value [3] was 0.0% and the “inhibition (10 μM)” value [3] was −8.9%. The “% inhibition” value [4] was 0.0%, the “inhibition (10 μM)” value [4] was −2.0% and the inhibition at 10 µM [5, 19] was 35 to 40%. For the same molecule, the inhibition at 10 µM ([5]; read-out: inhibition (10 μM)) was 39.1%, the inhibition at 10 µM [6, 19] was 0% and the inhibition at 10 µM ([6]; read-out: inhibition (10 μM)) was 34.6%. For the same molecule, the inhibition at 10 µM [7, 19] was 0%, the inhibition at 10 µM ([7]; read-out: inhibition (10 μM)) was -14.2% and the “% inhibition” value [8] was 75-90%. For the same molecule, the “inhibition (10 μM)” value [8] was 84.0%, the “% inhibition” value [9] was 0.0% and the “inhibition (10 μM)” value [9] was 2.6%. The inhibition at 10 µM [10, 19] was 0%, the inhibition at 10 µM ([10]; read-out: inhibition (10 μM)) was -31.5% and the “% inhibition” value [11] was 0.0%. The “inhibition (10 μM)” value [11] was −3.5%, the inhibition at 10 µM [12, 19] was 35 to 40% and the inhibition at 10 µM ([12]; read-out: inhibition (10 μM)) was 46.7%. For the same molecule, the inhibition at 10 µM [13, 19] was 50 to 75%, the inhibition at 10 µM ([13]; read-out: inhibition (10 μM)) was 51.1% and the inhibition at 10 µM [14, 19] was 0%. For the same molecule, the inhibition at 10 µM ([14]; read-out: inhibition (10 μM)) was 31.5%, the inhibition at 10 µM [15, 19] was 0% and the inhibition at 10 µM ([15]; read-out: inhibition (10 μM)) was -5.4%. It also gave an inhibition at 10 µM [16, 19] of 0%, an inhibition at 10 µM ([16]; read-out: inhibition (10 μM)) of -5.7% and an inhibition at 10 µM [17, 19] of 0%. It also gave an inhibition at 10 µM ([17]; read-out: inhibition (10 μM)) of 1.3%, an inhibition at 10 µM [18, 19] of 0% and an inhibition at 10 µM ([18]; read-out: inhibition (10 μM)) of 11.5%.
Molecule `Nc1ncc(-c2ccc(NS(=O)(=O)C3CC3)cc2F)cc1-c1ccc2c(c1)CCNC2=O` [Compound I-51, N-(4-(6-amino-5-(1-oxo-1,2,3,4-tetrahydroisoquinolin-6-yl)pyridin-3-yl)-3-fluorophenyl) cyclopropanesulfonamide] has an inhibition at 10 µM [1, 19] of 0%, an inhibition at 10 µM ([1]; read-out: inhibition (10 μM)) of -14% and an inhibition at 10 µM [2, 19] of 0%. For the same molecule, the inhibition at 10 µM ([2]; read-out: inhibition (10 μM)) was 4.7%, the “% inhibition” value [3] was 0.0% and the “inhibition (10 μM)” value [3] was 5.1%. The “% inhibition” value [4] was 0.0%, the “inhibition (10 μM)” value [4] was −11.0% and the inhibition at 10 µM [5, 19] was 0%. The inhibition at 10 µM ([5]; read-out: inhibition (10 μM)) was 30%, the inhibition at 10 µM [6, 19] was 35 to 40% and the inhibition at 10 µM ([6]; read-out: inhibition (10 μM)) was 40.3%. The inhibition at 10 µM [7, 19] was 0%, the inhibition at 10 µM ([7]; read-out: inhibition (10 μM)) was 1.8% and the “% inhibition” value [8] was 75-90%. For the same molecule, the “inhibition (10 μM)” value [8] was 76.2%, the “% inhibition” value [9] was 0.0% and the “inhibition (10 μM)” value [9] was −2.9%. For the same molecule, the inhibition at 10 µM [10, 19] was 0%, the inhibition at 10 µM ([10]; read-out: inhibition (10 μM)) was -47.1% and the “% inhibition” value [11] was 0.0%. For the same molecule, the “inhibition (10 μM)” value [11] was 29.4%, the inhibition at 10 µM [12, 19] was 35 to 40% and the inhibition at 10 µM ([12]; read-out: inhibition (10 μM)) was 36.4%. The inhibition at 10 µM [13, 19] was 50 to 75%, the inhibition at 10 µM ([13]; read-out: inhibition (10 μM)) was 50.4% and the inhibition at 10 µM [14, 19] was 0%. The inhibition at 10 µM ([14]; read-out: inhibition (10 μM)) was 30.1%, the inhibition at 10 µM [15, 19] was 0% and the inhibition at 10 µM ([15]; read-out: inhibition (10 μM)) was 24.4%. For the same molecule, the inhibition at 10 µM [16, 19] was 0%, the inhibition at 10 µM ([16]; read-out: inhibition (10 μM)) was -29.3% and the inhibition at 10 µM [17, 19] was 0%. For the same molecule, the inhibition at 10 µM ([17]; read-out: inhibition (10 μM)) was 11.3%, the inhibition at 10 µM [18, 19] was 0% and the inhibition at 10 µM ([18]; read-out: inhibition (10 μM)) was -12.1%.
`Nc1ncc(-c2ccc(NS(=O)(=O)C3CC3)cc2OC2CCCCC2)cc1-c1ccc2c(c1)CCNC2=O` [Compound I-65, N-(4-(6-amino-5-(1-oxo-1,2,3,4-tetrahydroisoquinolin-6-yl)pyridin-3-yl)-3-(cyclohexyloxy)phenyl) cyclopropanesulfonamide] showed an inhibition at 10 µM [1, 19] of 0%, an inhibition at 10 µM ([1]; read-out: inhibition (10 μM)) of 1.7% and an inhibition at 10 µM [2, 19] of 0%. For the same molecule, the inhibition at 10 µM ([2]; read-out: inhibition (10 μM)) was 23.1%, the “% inhibition” value [3] was 0.0% and the “inhibition (10 μM)” value [3] was 20.3%. For the same molecule, the “% inhibition” value [4] was 0.0%, the “inhibition (10 μM)” value [4] was 4.6% and the inhibition at 10 µM [5, 19] was 35 to 40%. It also gave an inhibition at 10 µM ([5]; read-out: inhibition (10 μM)) of 35%, an inhibition at 10 µM [6, 19] of 35 to 40% and an inhibition at 10 µM ([6]; read-out: inhibition (10 μM)) of 48%. For the same molecule, the inhibition at 10 µM [7, 19] was 0%, the inhibition at 10 µM ([7]; read-out: inhibition (10 μM)) was 30.6% and the “% inhibition” value [8] was over 90%. The “inhibition (10 μM)” value [8] was 91.0%, the “% inhibition” value [9] was 0.0% and the “inhibition (10 μM)” value [9] was 3.0%. For the same molecule, the inhibition at 10 µM [10, 19] was 0%, the inhibition at 10 µM ([10]; read-out: inhibition (10 μM)) was -8.9% and the “% inhibition” value [11] was 0.0%. The “inhibition (10 μM)” value [11] was 2.3%, the inhibition at 10 µM [12, 19] was 0% and the inhibition at 10 µM ([12]; read-out: inhibition (10 μM)) was 29.7%. It also gave an inhibition at 10 µM [13, 19] of 0%, an inhibition at 10 µM ([13]; read-out: inhibition (10 μM)) of 7.7% and an inhibition at 10 µM [14, 19] of 35 to 40%. The inhibition at 10 µM ([14]; read-out: inhibition (10 μM)) was 38.7%, the inhibition at 10 µM [15, 19] was 0% and the inhibition at 10 µM ([15]; read-out: inhibition (10 μM)) was -7.2%. The inhibition at 10 µM [16, 19] was 0%, the inhibition at 10 µM ([16]; read-out: inhibition (10 μM)) was -28.3% and the inhibition at 10 µM [17, 19] was 35 to 40%. The inhibition at 10 µM ([17]; read-out: inhibition (10 μM)) was 43.1%, the inhibition at 10 µM [18, 19] was 0% and the inhibition at 10 µM ([18]; read-out: inhibition (10 μM)) was -21.2%.
